Experimental data as given in patent US5482964A, “Substituted phenoxyhydroxypropyl amines as central nervous system agents” (Warner-Lambert Company, priority 1994, dated 1996).
pIC50, pKi: −log10 of the molar value.

Columns and labels:
P-type calcium channels = biological target: T1, P-type calcium channels (Rattus norvegicus, UniProt P54282); experiment: Inhibition of depolarization induced Ca++ flux (CaFl), 45Ca++ influx into rat neocortical synaptosomes; type: biochemical; settings: for pIC50: 30 mM KCl stimulated 45Ca flux, rat neocortical synaptosomes; for inhibition at 10 µM / inhibition at 30 µM: read-out: CaFl, percent inhibition
T1 construct: Male rats (Sprague-Dawley, 200-220 g) were killed by decapitation and neocortices were isolated by blunt dissection; from tissue; host or cells: Sprague-Dawley rat neocortex, crude synaptosomes
T1 sequence (P54282 whole entry): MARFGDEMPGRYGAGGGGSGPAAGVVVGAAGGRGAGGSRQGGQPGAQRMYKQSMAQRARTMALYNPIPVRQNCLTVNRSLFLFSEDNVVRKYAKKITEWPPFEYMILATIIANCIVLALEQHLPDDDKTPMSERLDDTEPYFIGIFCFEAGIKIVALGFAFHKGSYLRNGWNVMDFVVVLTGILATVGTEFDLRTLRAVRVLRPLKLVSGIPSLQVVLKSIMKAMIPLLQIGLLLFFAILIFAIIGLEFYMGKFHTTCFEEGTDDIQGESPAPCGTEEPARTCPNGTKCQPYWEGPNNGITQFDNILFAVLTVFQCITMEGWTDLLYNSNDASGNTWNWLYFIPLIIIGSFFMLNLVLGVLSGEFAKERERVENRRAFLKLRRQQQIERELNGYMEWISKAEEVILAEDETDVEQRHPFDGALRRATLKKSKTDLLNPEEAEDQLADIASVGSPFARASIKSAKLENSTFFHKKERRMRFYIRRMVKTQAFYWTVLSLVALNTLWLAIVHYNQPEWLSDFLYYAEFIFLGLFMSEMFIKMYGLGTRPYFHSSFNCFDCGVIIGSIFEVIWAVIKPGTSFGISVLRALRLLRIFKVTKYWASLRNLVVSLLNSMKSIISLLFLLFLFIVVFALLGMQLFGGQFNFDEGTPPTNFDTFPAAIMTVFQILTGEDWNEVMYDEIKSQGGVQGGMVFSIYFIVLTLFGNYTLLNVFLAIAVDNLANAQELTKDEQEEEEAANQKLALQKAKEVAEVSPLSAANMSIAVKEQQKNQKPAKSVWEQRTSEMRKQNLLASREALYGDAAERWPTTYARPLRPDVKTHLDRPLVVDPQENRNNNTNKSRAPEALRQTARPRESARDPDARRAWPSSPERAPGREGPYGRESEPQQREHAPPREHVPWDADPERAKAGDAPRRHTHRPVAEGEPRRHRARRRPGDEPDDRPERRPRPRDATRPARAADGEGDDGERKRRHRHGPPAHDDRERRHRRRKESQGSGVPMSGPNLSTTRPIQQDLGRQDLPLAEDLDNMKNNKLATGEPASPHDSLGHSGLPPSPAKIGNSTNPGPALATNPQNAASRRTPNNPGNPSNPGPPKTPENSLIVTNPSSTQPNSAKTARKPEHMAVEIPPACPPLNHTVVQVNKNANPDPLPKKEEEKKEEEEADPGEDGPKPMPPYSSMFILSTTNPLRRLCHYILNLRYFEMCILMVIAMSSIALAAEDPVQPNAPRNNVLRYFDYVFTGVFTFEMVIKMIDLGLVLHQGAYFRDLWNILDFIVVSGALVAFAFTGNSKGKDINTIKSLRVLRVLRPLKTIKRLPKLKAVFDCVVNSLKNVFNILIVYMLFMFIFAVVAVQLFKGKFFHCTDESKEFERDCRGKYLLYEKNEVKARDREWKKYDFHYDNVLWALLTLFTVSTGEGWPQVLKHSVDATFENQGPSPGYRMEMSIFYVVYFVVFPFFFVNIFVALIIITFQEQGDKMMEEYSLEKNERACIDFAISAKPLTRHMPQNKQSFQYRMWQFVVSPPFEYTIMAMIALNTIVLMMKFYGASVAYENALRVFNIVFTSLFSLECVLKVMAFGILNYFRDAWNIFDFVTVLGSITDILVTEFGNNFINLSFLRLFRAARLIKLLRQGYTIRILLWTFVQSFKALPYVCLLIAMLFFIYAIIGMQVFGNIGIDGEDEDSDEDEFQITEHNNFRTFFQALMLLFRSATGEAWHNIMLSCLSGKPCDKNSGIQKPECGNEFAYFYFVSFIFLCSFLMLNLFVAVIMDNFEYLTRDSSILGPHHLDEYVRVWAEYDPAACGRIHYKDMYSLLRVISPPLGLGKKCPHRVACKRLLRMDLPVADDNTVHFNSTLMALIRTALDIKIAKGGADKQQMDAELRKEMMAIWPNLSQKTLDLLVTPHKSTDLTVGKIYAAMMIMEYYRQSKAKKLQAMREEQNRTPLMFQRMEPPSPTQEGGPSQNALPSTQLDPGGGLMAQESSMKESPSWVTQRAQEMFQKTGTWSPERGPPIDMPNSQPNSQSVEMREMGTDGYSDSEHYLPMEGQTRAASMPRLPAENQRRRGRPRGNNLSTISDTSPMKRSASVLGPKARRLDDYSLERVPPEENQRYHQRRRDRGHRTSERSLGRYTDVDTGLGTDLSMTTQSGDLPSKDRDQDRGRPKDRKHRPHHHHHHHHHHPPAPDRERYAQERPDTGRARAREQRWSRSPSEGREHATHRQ
Text: A large influx of calcium from extracellular compartments into neurons is observed after opening of voltage-dependent calcium channels. The opening of calcium channels may be induced by a K^+ -stimulated depolarization of neuronal membranes. A crude synaptosomal preparation contains small vesicles surrounded by neuronal membranes, and it is feasible to study the opening of voltage-operated calcium channels in such a preparation. In the test described below, the influx of ^45 Ca^++ into rat synaptosomes is studied under depolarized conditions. The effect of the test compounds on the depolarization induced calcium update can thus be studied. The calcium influx measured in this assay is believed to represent the P-type calcium channels.
Male rats (Sprague-Dawley, 200-220 g) were killed by decapitation and neocortices were isolated by blunt dissection. White matter was dissected away and the gray matter was placed in cold sucrose buffer (composition (mM): sucrose 320, TRIS base 5.0, EDTA 0.1; adjusted to pH 7.3 with HCl). The tissue was homogenized using 5 strokes at 500 rpm followed by 4 strokes at 800 rpm. The homogenate was centrifuged at 1075 g for 10 minutes. The pellet was discarded and the supernatant was centrifuged at 15800 g for 10 minutes at 4° C., and the supernatant was discarded. The final pellet was resuspended in incubation buffer and kept on ice.
Fifty-microliter aliquots of neocortical synaptosome suspension were preincubated for 5 minutes at 25° C. in 400 μL of incubation buffer containing drug or control solvent. The synaptosomes were then exposed to a tracer quantity of ^45 CaCl2 (1 μCi/mL) in combination with either 3 mM KCl (basal calcium flux or 30 mM KCl (stimulated calcium flux). The calcium flux was terminated by filtration over glass-fiber filters (GFB) using a Skatron 12-well harvester; filters were washed with a pressurized, continuous flow of 3 mL wash buffer (composition (mM): choline chloride 140, EGTA 3, HEPES 22; adjusted to pH 7.3 with TRIS base). Radioactivity of the filters was measured by scintillation counting. Basal calcium flux was subtracted from stimulated calcium flux in both control- and drug-treated conditions, and data were expressed as percent inhibition of the adjusted control response.

sodium channels = settings: rat neocortical membranes, 5 nM [3H]batrachotoxinin, Cheng-Prusoff; read-out: BTX Binding
male CF-1 mice = experiment: Maximal electroshock (MES) anticonvulsant screen in mice; type: in vivo
Experimental: All experiments were conducted on male CF-1 mice (Charles River Laboratory, Portage, Mich.). The mice weighed 20 to 35 g and were allowed free access to food and water prior to testing. The compounds were dissolved in various solutions of up to 50% organic solvents and 50% buffered solutions. All doses were injected intravenously (IV) in a volume of 1.0 mL per 100 g of body weight using a 25-gauge needle and a 1 cc syringe. Doses of the compounds were calculated as the free base.
Maximal electroshock was administered via corneal electrodes with an electroshock apparatus (Wahlquist Instrument Company) immediately following the inverted screen test. The stimulus consisted of a 50 mA current (100 mA peak-to-peak) and duration of 0.2 seconds. The protocol for the MES assay involved groups of five mice per dose at each time period postdose. […] The mice were sacrificed with carbon dioxide immediately after MES. Anticonvulsant data were recorded as the number of mice protected from MES out of five. Two out of five were considered active.

## COc1ccc(CCN(Cc2ccc(F)cc2)CC(O)COc2cccc(C)c2)cc1OC (stereo not shown) [Example 1, 1-[[2-(3,4-Dimethoxyphenyl)-ethyl]-(4-fluorobenzyl)amino]-3-m-tolyloxy-propan-2-ol]
P-type calcium channels
  pIC50: 5.28

## COc1ccc(CCN(Cc2ccccc2)CC(O)COc2cccc(C)c2)cc1OC (stereo not shown) [Example 2, 1-{Benzyl-[2-(3,4-dimethoxyphenyl)-ethyl]amino}-3-m-tolyloxy-propan-2-ol]
Sodium channels
  pKi: 6.28
P-type calcium channels
  pIC50: 5.04

## COc1ccc(CCN(Cc2ccc(Cl)cc2)CC(O)COc2cccc(C)c2)cc1OC (stereo not shown) [Example 3, 1-{(4-Chlorobenzyl)-[2-(3,4-dimethoxyphenyl)-ethyl]-amino}-3-m-tolyloxy-propan-2-ol]
P-type calcium channels
  inhibition at 10 µM: 44%
  inhibition at 30 µM: 77%

## COc1ccc(CCN(Cc2cccc(F)c2)CC(O)COc2cccc(C)c2)cc1OC (stereo not shown) [Example 4, 1-[[2-(3,4-Dimethoxyphenyl)-ethyl]-(3-fluorobenzyl)amino]-3-m-tolyloxy-propan-2-ol]
P-type calcium channels
  pIC50: 5.18

## COc1ccc(CCN(Cc2ccc([N+](=O)[O-])cc2)CC(O)COc2cccc(C)c2)cc1OC (stereo not shown) [Example 5, 1-[[2-(3,4-Dimethoxyphenyl)-ethyl]-(4-nitrobenzyl)amino]-3-m-tolyloxy-propan-2-ol]
P-type calcium channels
  inhibition at 10 µM: 59%
  inhibition at 30 µM: 62%

## COc1ccc(CCN(Cc2cccc([N+](=O)[O-])c2)CC(O)COc2cccc(C)c2)cc1OC (stereo not shown) [Example 6, 1-[[2-(3,4-Dimethoxyphenyl)-ethyl]-(3-nitrobenzyl)amino]-3-m-tolyloxy-propan-2-ol]
P-type calcium channels
  inhibition at 10 µM: 57%
  inhibition at 30 µM: 62%

## COc1ccc(CCN(Cc2cccc(Cl)c2)CC(O)COc2cccc(C)c2)cc1OC (stereo not shown) [Example 7, 1-{(3-Chlorobenzyl)-[2-(3,4-dimethoxyphenyl)ethyl]-amino}-3-m-tolyloxy-propan-2-ol]
P-type calcium channels
  inhibition at 10 µM: 47%

## COc1ccc(CN(CCc2ccc(OC)c(OC)c2)CC(O)COc2cccc(C)c2)cc1 (stereo not shown) [Example 8, 1-[[2-(3,4-Dimethoxyphenyl)-ethyl]-(4-methoxybenzyl)amino]-3-m-tolyloxy-propan-2-ol]
Sodium channels
  pKi: 6.82
P-type calcium channels
  pIC50: 5.27

## COc1ccc(CCN(Cc2cccc3ccccc23)CC(O)COc2cccc(C)c2)cc1OC (stereo not shown) [Example 9, 1-{[2-(3,4-Dimethoxyphenyl)-ethyl]-naphthalen-1-ylmethylamino}-3-m-tolyloxy-propan-2-ol]
P-type calcium channels
  pIC50: 5.00

## COc1cccc(CN(CCc2ccc(OC)c(OC)c2)CC(O)COc2cccc(C)c2)c1 (stereo not shown) [Example 10, 1-[[2-(3,4-Dimethoxyphenyl)-ethyl]-(3-methoxybenzyl)amino]-3-m-tolyloxy-propan-2-ol]
P-type calcium channels
  pIC50: 5.29

## COc1ccc(CCN(Cc2ccccc2[N+](=O)[O-])CC(O)COc2cccc(C)c2)cc1OC (stereo not shown) [Example 11, 1-[[2-(3,4-Dimethoxyphenyl)-ethyl]-(2-nitrobenzyl)amino]-3-m-tolyloxy-propan-2-ol]
P-type calcium channels
  pIC50: 5.51

## COc1ccccc1CN(CCc1ccc(OC)c(OC)c1)CC(O)COc1cccc(C)c1 (stereo not shown) [Example 12, 1-[[2-(3,4-Dimethoxyphenyl)-ethyl]-(2-methoxybenzyl)amino]-3-m-tolyloxy-propan-2-ol]
P-type calcium channels
  pIC50: 5.39

## COc1ccc(CCN(Cc2ccccc2F)CC(O)COc2cccc(C)c2)cc1OC (stereo not shown) [Example 13, 1-[[2-(3,4-Dimethoxyphenyl)-ethyl]-(2-fluorobenzyl)amino]-3-m-tolyloxy-propan-2-ol]
P-type calcium channels
  pIC50: 5.74

## COc1ccc(CCN(Cc2ccccc2)CC(O)COc2ccc(OCc3ccccc3)cc2)cc1OC (stereo not shown) [Example 14, 1-{Benzyl-[2-(3,4-dimethoxyphenyl)-ethyl]-amino}-3-(4-benzyloxyphenoxy)-propan-2-ol]
Sodium channels
  pKi: 7.80
P-type calcium channels
  pIC50: 5.30

## COc1ccc(CCN(Cc2ccccc2)CC(O)COc2ccc(C3CCCCC3)cc2C)cc1OC (stereo not shown) [Example 15, 1-{Benzyl-[2-(3,4-dimethoxyphenyl)-ethyl]-amino}-3-(4-cyclohexyl-2-methylphenoxy)-propan-2-ol]
P-type calcium channels
  pIC50: 5.04

## COc1ccc(CCN(Cc2ccccc2)CC(O)COc2ccc3c(c2)CCC3)cc1OC (stereo not shown) [Example 16, 1-{Benzyl-[2-(3,4-dimethoxyphenyl)-ethyl]-amino}-3-(indan-5-yloxy)-propan-2-ol]
P-type calcium channels
  pIC50: 5.32

## COc1ccc(CCN(Cc2ccccc2Cl)CC(O)COc2cccc(C)c2)cc1OC (stereo not shown) [Example 17, 1-{(2-Chlorobenzyl)-[2-(3,4-dimethoxyphenyl)ethyl]-amino}-3-m-tolyloxy-propan-2-ol]
P-type calcium channels
  inhibition at 10 µM: 46%
  inhibition at 30 µM: 55%

## COc1ccc(CCN(Cc2ccccc2)CC(O)COc2cccc3ccccc23)cc1OC (stereo not shown) [Example 18, 1-{Benzyl-[2-(3,4-dimethoxyphenyl)-ethyl]-amino}-3-(naphthalen-1-yloxy)-propan-2-ol]
P-type calcium channels
  pIC50: 5.09

## COc1ccc(CCN(Cc2ccccc2)CC(O)CSc2cccc3ccccc23)cc1OC (stereo not shown) [Example 19, 1-{Benzyl-[2-(3,4-dimethoxyphenyl)-ethyl]-amino}-3-(naphthalen-1-ylsulfanyl)-propan-2-ol]
Sodium channels
  pKi: 6.70
P-type calcium channels
  pIC50: 5.60

## COc1ccc(CCN(Cc2ccccc2)CC(O)COc2cccc(C(F)(F)F)c2)cc1OC (stereo not shown) [Example 20, 1-{Benzyl-[2-(3,4-dimethoxyphenyl)-ethyl]-amino}-3-(3-trifluoromethylphenoxy)-propan-2-ol]
Sodium channels
  pKi: 6.21
P-type calcium channels
  pIC50: 5.33

## COc1ccc(CCN(Cc2ccccc2)CC(O)CSc2cccc(C(F)(F)F)c2)cc1OC (stereo not shown) [Example 21, 1-{Benzyl-[2-(3,4-dimethoxyphenyl)-ethyl]-amino}-3-(3-trifluoromethylphenylsulfanyl)-propan-2-ol]
Sodium channels
  pKi: 6.36
P-type calcium channels
  pIC50: 5.37

## COc1ccc(CCN(CCc2ccccc2)CC(O)COc2cccc(C)c2)cc1OC (stereo not shown) [Example 22, 1-{[2-(3,4-Dimethoxyphenyl)ethyl]-phenethylamino}-3-m-tolyloxy-propan-2-ol]
P-type calcium channels
  pIC50: 5.85

## COc1ccc(CCN(CC(O)COc2cccc(C)c2)CC2CCCCC2)cc1OC (stereo not shown) [Example 23, 1-{Cyclohexylmethyl-[2-(3,4-dimethoxyphenyl)ethyl]-amino}-3-m-tolyloxy-propan-2-ol]
P-type calcium channels
  pIC50: 5.72

## COc1ccc(CCN(C)CC(O)COc2ccc(C3CCCCC3)cc2C)cc1OC (stereo not shown) [Example 24, 1-(4-Cyclohexyl-2-methylphenoxy)-3-{[2-(3,4-dimethoxyphenyl)-ethyl]-methylamino}-propan-2-ol]
Male CF-1 mice; 1 mg/kg IV, 3 min postdose
  MES, number of mice protected: 0/5
Male CF-1 mice; 1 mg/kg IV, 30 min postdose
  MES, number of mice protected: 0/5
Male CF-1 mice; 3 mg/kg IV, 3 min postdose
  MES, number of mice protected: 0/5
Male CF-1 mice; 3 mg/kg IV, 30 min postdose
  MES, number of mice protected: 1/5
Male CF-1 mice; 3 mg/kg IV, 1 hr postdose
  MES, number of mice protected: 1/5
Male CF-1 mice; 10 mg/kg IV, 3 min postdose
  MES, number of mice protected: 4/5
Male CF-1 mice; 10 mg/kg IV, 30 min postdose
  MES, number of mice protected: 4/5
Male CF-1 mice; 10 mg/kg IV, 1 hr group
  Animals died in this group: 1/5
Male CF-1 mice; 10 mg/kg IV, 1 hr postdose
  MES, number of mice protected: 3/4
Sodium channels
  pKi: 6.51
P-type calcium channels
  pIC50: 5.68

## COc1ccc(CCN(C)CC(O)COc2cccc(C)c2)cc1OC (stereo not shown) [Example 25, 1-{[2-(3,4-Dimethoxyphenyl)-ethyl]-methylamino}-3-m-tolyloxy-propan-2-ol]
P-type calcium channels
  inhibition at 30 µM: 31%

## COc1ccc(CCN(C)CC(O)COc2ccc(OCc3ccccc3)cc2)cc1OC (stereo not shown) [Example 26, 1-(4-Benzyloxyphenoxy)-3-{[2-(3,4-dimethoxyphenyl)ethyl]-methylamino}-propan-2-ol]
P-type calcium channels
  pIC50: 5.48

## COc1ccc(CCN(C)CC(O)COc2ccc3c(c2)CCC3)cc1OC (stereo not shown) [Example 27]
P-type calcium channels
  inhibition at 10 µM: 43%
  inhibition at 30 µM: 69%

## COc1ccc(CCN(C)CC(O)COc2cccc3ccccc23)cc1OC (stereo not shown) [Example 28, 1-{[2-(3,4-Dimethoxyphenyl)-ethyl]-methylamino}-3-(naphthalen-1-yloxy)-propan-2-ol]
P-type calcium channels
  pIC50: 5.17

## COc1ccc(CCN(C)CC(O)CSc2cccc3ccccc23)cc1OC (stereo not shown) [Example 29, 1-{[2-(3,4-Dimethoxyphenyl)-ethyl]-methylamino}-3-(naphthalen-1-ylsulfanyl)-propan-2-ol]
P-type calcium channels
  pIC50: 5.44

## COc1ccc(CCN(Cc2c[nH]c3ccccc23)CC(O)COc2cccc(C)c2)cc1OC (stereo not shown) [Example 30, 1-[[2-(3,4-Dimethoxyphenyl)ethyl]-(1H-indol-3-ylmethyl)-amino]-3-m-tolyloxypropan-2-ol]
Sodium channels
  pKi: 7.82
P-type calcium channels
  pIC50: 5.35
